# Experimental data from PubChem BioAssay (NCI).
#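 Compound exposure: 48 hours, 5 concentrations, 96-well plates. TGI: total growth inhibition.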
# Test system: MALME-3M melanoma
# Test: DTP human tumour cell line panel, 48 h
row,Structure (SMILES),TGI [µM]
1,CC(C)=CC(=O)C[C@H]1C(=O)O[C@@H]2C[C@H]3C(C)=CC(=O)[C@@H](O)[C@]3(C)[C@H]3[C@@]4(O)OC[C@]32[C@@H]1[C@@H](C)[C@H]4O,0.0619
2,CCN(CC)CC(=O)O[C@]1(CC)C(=O)OCc2c1cc1n(c2=O)Cc2cc3ccccc3nc2-1,2.61
3,Cn1c(=O)c2[nH]c(CCCCC(=O)O)nc2n(C)c1=O,> 100
4,COc1ccc(-c2cc(=O)c3ccccc3[nH]2)c(OC)c1,> 100
5,C/C=C(/C)C(=O)O[C@H]1C[C@@H]2[C@@H](O)c3occ(C)c3C[C@]2(C)[C@@H](C)C1,29.2
6,Cc1ccc(-c2c3nc(c(-c4ccc(C)cc4)c4ccc([nH]4)c(-c4ccc(OCC5COC(C)(C)O5)cc4)c4nc(c(-c5ccc(C)cc5)c5ccc2[nH]5)C=C4)C=C3)cc1 (stereo unspecified),> 31.6
7,CC(=NNC(=S)Nc1ccc(C)cc1)c1cccc(C(C)=NNC(=S)Nc2ccc(C)cc2)n1,46.9
8,N#Cc1c(-c2ccccc2)cc(Nc2cccc(C(F)(F)F)c2)n2c1nc1ccccc12,8.32
9,COc1ccc(O)c(/C(C)=N/NC(=S)N(C)C)c1,> 100
10,c1csc(-c2cc(-c3cccs3)c(-c3ccsc3)s2)c1,> 100
11,Cc1ccc(S(=O)(=O)OC(c2ccc(Cl)cc2Cl)C2OC(=O)c3ccccc32)cc1 (stereo unspecified),> 100
12,CN1C2CCC1CC(CCNC(c1ccccc1)c1ccccc1)C2 (stereo unspecified),31.4
13,CCOP(=O)(O)C1C(CO)OC(n2ccc(=O)[nH]c2=O)C1O (stereo unspecified),> 100
14,O=C1NCCCNCCCNCCCNC(=O)c2cccc1n2,> 100
15,CSC1=N/C(=C\c2ccccc2)C(=O)N1CN1CCCCC1,> 100
16,CCOC(=O)C(Cc1cn(S(=O)(=O)c2ccccc2)c2ccccc12)(NC(C)=O)C(=O)OCC,> 100

# Test system: MCF7 breast
# Test: DTP human tumour cell line panel, 48 h
row,Structure (SMILES),TGI [µM]
1,Cc1ccc(N=Nc2c(C)c(C#N)c(=S)n(C3OC(CO)C(O)C(O)C3O)c2C)cc1 (stereo unspecified),> 100
2,C=C(CC[C@@H](C)[C@H]1CC[C@@]2(C)C3=C(CC[C@]12C)[C@@]1(C)CC[C@H](O)[C@@H](C)C1CC3)C(C)C (stereo partly specified),2.69
3,CNC(=O)N1CN(c2ccccc2)C2(CCN(CCCC3(c4ccc(F)cc4)OCCO3)CC2)C1=O,> 100
4,O=C(Cc1ccccc1)N/N=C/c1ccccc1O,> 100
5,CC1(C)CC(=O)C(/C=N/c2nc(-c3ccccc3)cs2)=C(O)C1,> 100
6,N#Cc1nc(C2=C(Cl)c3ccccc3OC2)[nH]c1C#N,70
7,C/C=C(/C)C(=O)O[C@H]1C[C@@H]2[C@@H](O)c3occ(C)c3C[C@]2(C)[C@@H](C)C1,38.9
8,Cc1ccc(-c2c3nc(c(-c4ccc(C)cc4)c4ccc([nH]4)c(-c4ccc(OCC5COC(C)(C)O5)cc4)c4nc(c(-c5ccc(C)cc5)c5ccc2[nH]5)C=C4)C=C3)cc1 (stereo unspecified),> 31.6
9,CC(=NNC(=S)Nc1ccc(C)cc1)c1cccc(C(C)=NNC(=S)Nc2ccc(C)cc2)n1,> 100
10,c1ccc(CSP234N5CCN2CCN3CCN4CC5)c(CSP234N5CCN2CCN3CCN4CC5)c1,> 100
11,c1csc(-c2cc(-c3cccs3)c(-c3ccsc3)s2)c1,> 100
12,O=C1O/C(=C(/Br)c2ccc(Cl)c(Cl)c2)c2ccccc21,> 10
13,CSC1=N/C(=C\c2ccccc2)C(=O)N1CN1CCCCC1,> 100

# Test system: MDA-MB-435
# Test: DTP human tumour cell line panel, 48 h
row,Structure (SMILES),TGI [µM]
1,Cc1ccc(N=Nc2c(C)c(C#N)c(=S)n(C3OC(CO)C(O)C(O)C3O)c2C)cc1 (stereo unspecified),81.2
2,C=C(CC[C@@H](C)[C@H]1CC[C@@]2(C)C3=C(CC[C@]12C)[C@@]1(C)CC[C@H](O)[C@@H](C)C1CC3)C(C)C (stereo partly specified),2.82
3,CC(=O)OCCOCn1cnc2c(Cl)nc(Cl)nc21,33.5
4,CNC(=O)N1CN(c2ccccc2)C2(CCN(CCCC3(c4ccc(F)cc4)OCCO3)CC2)C1=O,> 100
5,O=C(Cc1ccccc1)N/N=C/c1ccccc1O,> 100
6,COc1ccc(N2C(=O)c3cc(C)cnc3S2(=O)=O)cc1,> 100
7,CC(C)=CC(=O)C[C@H]1C(=O)O[C@@H]2C[C@H]3C(C)=CC(=O)[C@@H](O)[C@]3(C)[C@H]3[C@@]4(O)OC[C@]32[C@@H]1[C@@H](C)[C@H]4O,0.305
8,CC1(C)CC(=O)C(/C=N/c2nc(-c3ccccc3)cs2)=C(O)C1,73.6
9,CCN(CC)CC(=O)O[C@]1(CC)C(=O)OCc2c1cc1n(c2=O)Cc2cc3ccccc3nc2-1,0.862
10,Cn1c(=O)c2[nH]c(CCCCC(=O)O)nc2n(C)c1=O,> 100
11,C/C=C(/C)C(=O)O[C@H]1C[C@@H]2[C@@H](O)c3occ(C)c3C[C@]2(C)[C@@H](C)C1,33
12,Cc1ccc(-c2c3nc(c(-c4ccc(C)cc4)c4ccc([nH]4)c(-c4ccc(OCC5COC(C)(C)O5)cc4)c4nc(c(-c5ccc(C)cc5)c5ccc2[nH]5)C=C4)C=C3)cc1 (stereo unspecified),> 31.6
13,CC(=NNC(=S)Nc1ccc(C)cc1)c1cccc(C(C)=NNC(=S)Nc2ccc(C)cc2)n1,> 100
14,N#Cc1c(-c2ccccc2)cc(Nc2cccc(C(F)(F)F)c2)n2c1nc1ccccc12,17.1
15,COc1ccc(O)c(/C(C)=N/NC(=S)N(C)C)c1,> 100
16,c1ccc(CSP234N5CCN2CCN3CCN4CC5)c(CSP234N5CCN2CCN3CCN4CC5)c1,> 100
17,c1csc(-c2cc(-c3cccs3)c(-c3ccsc3)s2)c1,> 100
18,CN1C2CCC1CC(CCNC(c1ccccc1)c1ccccc1)C2 (stereo unspecified),21.4
19,O=C1NCCCNCCCNCCCNC(=O)c2cccc1n2,> 100
20,O=C1O/C(=C(/Br)c2ccc(Cl)c(Cl)c2)c2ccccc21,> 10
21,CSC1=N/C(=C\c2ccccc2)C(=O)N1CN1CCCCC1,> 100

# Test system: NCI-H23 lung
# Test: DTP human tumour cell line panel, 48 h
row,Structure (SMILES),TGI [µM]
1,Cc1ccc(N=Nc2c(C)c(C#N)c(=S)n(C3OC(CO)C(O)C(O)C3O)c2C)cc1 (stereo unspecified),> 100
2,C=C(CC[C@@H](C)[C@H]1CC[C@@]2(C)C3=C(CC[C@]12C)[C@@]1(C)CC[C@H](O)[C@@H](C)C1CC3)C(C)C (stereo partly specified),2.51
3,C=C1CCC23CC(CC[C@@H]2[C@@]12C[C@@H](c1ccoc1)OC2=O)OC3=O (stereo partly specified),> 100
4,CC(=O)OCCOCn1cnc2c(Cl)nc(Cl)nc21,36.1
5,CNC(=O)N1CN(c2ccccc2)C2(CCN(CCCC3(c4ccc(F)cc4)OCCO3)CC2)C1=O,> 100
6,O=C(Cc1ccccc1)N/N=C/c1ccccc1O,> 100
